Entries after “also recorded” stand apart in the source; their conditions may differ. Read-outs that look alike come from different tables or passages of the source.
Assays:
SIK1 = SIK1 (Homo sapiens (Human), UniProt P57059); assay: cell-based
[1] = ester bond, 14-membered ring
SIK2 (h) = SIK2 (h) (Homo sapiens (Human), UniProt Q9H0K1); assay: SIK2 kinase activity, Eurofins KinaseProfiler ([γ-33P]-ATP filter assay); format: biochemical; settings: Table 6, macrocycles; read-out: IC50 nM SIK2
Protocol: (§1) SIK1, 2 and 3 kinase activity was assessed using a Eurofins Cerep S.A. (‘Eurofins’) KinaseProfiler. All compounds were prepared to 50× final assay concentration in 100% DMSO. This working stock of the compound was added to the assay well as the first component in the reaction, followed by the remaining components as detailed in the general assay protocols below. In the standard KinaseProfiler service, there is no pre-incubation step between the compound and the kinase prior to initiation of the reaction. The positive control well contains all components of the reaction, except the compound of interest; however, DMSO (at a final concentration of 2%) is included in these wells to control for solvent effects. The blank wells contain all components of the reaction, with a reference inhibitor replacing the compound of interest. This abolishes kinase activity and establishes the base-line (0% kinase activity remaining).
(§2) SIK2 (h) was incubated with 8 mM MOPS pH 7.0, 0.2 mM EDTA, 100 μM […], 10 mM Magnesium acetate and [γ-33P-ATP](specific activity and concentration as required). The reaction was initiated by the addition of the Mg/ATP mix. After incubation for 40 minutes at room temperature, the reaction was stopped by the addition of phosphoric acid to a concentration of 0.5%, 10 μL of the reaction was then spotted onto a P30 filtermat and washed four times for 4 minutes in 0.425% phosphoric acid and once in methanol prior to drying and scintillation counting.

[2] = test system: living human skin explants; format: cell-based
[3] = test system: living human skin explants; assay: Cell viability of living human skin explants, Masson's trichrome staining (Example 8); format: cell-based; settings: 1% topical in vehicle E
Protocol: All the tested products were diluted in the vehicle noted as E (Ethanol 65%, Propylene glycol 25%, Transcutol 10%). The diluted solutions were stored at 4° C. within the study period. 36 human skin explants of an average diameter of 11 mm (+1 mm) were prepared on an abdoplasty coming from a person (reference: P2462-AB53) with a III phototype. The explants were kept in survival in BEM culture medium (BIO-EC's Explants Medium) at 37° C. in a humid, 5%-CO2 atmosphere. Study is performed on human skin tissue, obtained from surgical residues in full respect with the Declaration of Helsinki and the article L. 1243-4 of the French Public Health Code.
The excipient E and the tested products were applied topically at a rate of 2 μL per 1 cm^2 explant (˜2 mg/cm^2) and spread and gently rubbed for 10 seconds using a small spatula on day 0 (DO), D3, D5, D7 and D10. […] The culture medium was half renewed (1 ml per well) on D3, D5, D7 and D10. On D0, D3, D4, D5, D6, D7 and D10, the culture media of the irradiated explants (UV) were replaced by HBSS (Hank's Balanced Saline Solution; 1 ml per explant). Then, the explants of the “UV” batch were irradiated using a UV simulator Vibert Lourmat RMX 3W with a dose of 2.25 J/cm^2 of UVA (with 6-8% of UVB) corresponding to 0.5 MED (minimal erythemal dose) on a skin with a III phototype. At the end of the UV irradiation, the explants form the batch TUV were put back in 2 mL of BEM medium. On D0, the 3 explants from the batch TO were collected and cut in two parts. Half was fixed in buffered formalin solution and half was frozen at −80° C. On D10, 3 explants from the concerned batches were collected and treated in the same way than in DO. According to the dispositions mentioned in the study plan, the days of treatments, irradiations and sampling were adjusted to the schedule of working days. After fixation for 24 hours in buffered formalin, the samples were dehydrated and impregnated in paraffin using a Leica PEARL dehydration automat. The samples were embedded using a Leica EG 1160 embedding station. 5-μm-thick sections were made using a Leica RM 2125 Minot-type microtome, and the sections were mounted on Superfrost® histological glass slides. The frozen samples were cut into 7-μm-thick sections using a Leica CM 3050 cryostat. Sections were then mounted on Superfrost®, plus silanized glass slides. The microscopical observations were realized using a Leica DMLB or Olympus BX43 microscope. Pictures were digitized with a numeric DP72 Olympus camera with CellSens storing software.
The cell viability of the epidermal and dermal structures was assessed by microscopical observation of formalin-fixed paraffin-embedded (FFPE) skin sections after Masson's trichrome staining, Goldner variant.

SIK (h) / SIK1 = SIK (h) / SIK1 (Homo sapiens (Human), UniProt P57059); assay: SIK1 kinase activity, Eurofins KinaseProfiler ([γ-33P]-ATP filter assay); format: biochemical; settings: Table 6, macrocycles
Protocol: as §1
as §2, with “SIK” for “SIK2”, “[γ-33P]-ATP (specific” for “[γ-33P-ATP](specific”

SIK3 (h) = SIK3 (h) (Homo sapiens (Human), UniProt Q9Y2K2); assay: SIK3 kinase activity, Eurofins KinaseProfiler ([γ-33P]-ATP filter assay); format: biochemical; settings: Table 6, macrocycles
Protocol: as §1
as §2, with “SIK3 (h) was” for “SIK2 (h) was”, “the reaction is stopped by” for “the reaction was stopped by”, “0.5%, […] of the” for “0.5%, 10 μL of the”

[4] = test system: living human skin explants; assay: Pigmentation of living human skin explants ex vivo (Example 10); format: cell-based; settings: 15 mM and 21 mM, 5 μL/cm2 topically each day for 6 days
Protocol: SLT-045 (3, 7, 15, 21 mM; 5 μL/cm2) in vehicle (44.9% DMSO/37.5% EtOH/17.4% propylene glycol) was applied topically applied using a Pasteur pipette, each day for 6 days using triplicate skin samples (8 mm punch).

B16 4A5 cells = assay: B16 4A5 cell viability, MTS assay; format: cell-based, mouse; settings: 5 μg/mL, 72 h, compared with DMSO 0.1% control
Protocol: B16 4A5 cells were seeded in 24-well plates at 20,000 cells/well, 24 h before the beginning of the treatment with test compounds at 5 concentrations, in triplicates (n=3). […] Additionally, DMSO at 0.1%, used for solubilization of the test compounds, was tested in parallel. The treatments were performed in culture medium containing only 1% of FBS. […] The effects of the compounds on B16 4A5 viability was assessed. To this purpose, cells were incubated during 72 h with 5 concentrations of the compounds, were left untreated, treated with SDS or with DMSO 0.1%.

[5] = test system: living human skin explants; assay: Melanin in living human skin explants, Fontana-Masson staining (Example 9); format: cell-based; settings: for melanin content (staining, microscopical observation): Propylene glycol 30%; for surface occupied by melanin in the basal cell layer of the epidermis: vehicle E 7.9
Protocol: All the tested products were diluted in the vehicle (Ethanol 70%, Propylene glycol 30%). 24 human skin explants of an average diameter of […] were prepared on an abdoplasty coming from a person (reference: P2511-AB43) with a II phototype. The explants were kept in survival in BEM culture medium (BIO-EC's Explants Medium) at 37° C. in a humid, 5%-CO2 atmosphere. Products were applied topically at a rate of 2 μL per 1 cm^2 explant (2 mg/cm^2) and spread and gently rubbed for 10 seconds using a small spatula on day 0 (D0), D2, D5 and D7. […] The culture medium was half renewed (1 ml per well) on D2, D5 and D7. After fixation for 24 hours in buffered formalin, the samples were dehydrated and impregnated in paraffin using a Leica PEARL dehydration automat. The samples were embedded using a Leica EG 1160 embedding station. 5-μm-thick sections were made using a Leica RM 2125 Minot-type microtome, and the sections were mounted on Superfrost® histological glass slides. The frozen samples were cut into 7-μm-thick sections using a Leica CM 3050 cryostat. Sections were then mounted on Superfrost® plus silanized glass slides. The microscopical observations were realized using a Leica DMLB or Olympus BX43 microscope. Pictures were digitized with a numeric DP72 Olympus camera with CellSens storing software. Melanin was visualized after silver impregnation according to Masson's Fontana staining method on FFPE skin sections. The staining was assessed by microscopical observation (FIG. 5) and by image analysis (FIG. 6).

Sequence of SIK1 (P57059 whole entry): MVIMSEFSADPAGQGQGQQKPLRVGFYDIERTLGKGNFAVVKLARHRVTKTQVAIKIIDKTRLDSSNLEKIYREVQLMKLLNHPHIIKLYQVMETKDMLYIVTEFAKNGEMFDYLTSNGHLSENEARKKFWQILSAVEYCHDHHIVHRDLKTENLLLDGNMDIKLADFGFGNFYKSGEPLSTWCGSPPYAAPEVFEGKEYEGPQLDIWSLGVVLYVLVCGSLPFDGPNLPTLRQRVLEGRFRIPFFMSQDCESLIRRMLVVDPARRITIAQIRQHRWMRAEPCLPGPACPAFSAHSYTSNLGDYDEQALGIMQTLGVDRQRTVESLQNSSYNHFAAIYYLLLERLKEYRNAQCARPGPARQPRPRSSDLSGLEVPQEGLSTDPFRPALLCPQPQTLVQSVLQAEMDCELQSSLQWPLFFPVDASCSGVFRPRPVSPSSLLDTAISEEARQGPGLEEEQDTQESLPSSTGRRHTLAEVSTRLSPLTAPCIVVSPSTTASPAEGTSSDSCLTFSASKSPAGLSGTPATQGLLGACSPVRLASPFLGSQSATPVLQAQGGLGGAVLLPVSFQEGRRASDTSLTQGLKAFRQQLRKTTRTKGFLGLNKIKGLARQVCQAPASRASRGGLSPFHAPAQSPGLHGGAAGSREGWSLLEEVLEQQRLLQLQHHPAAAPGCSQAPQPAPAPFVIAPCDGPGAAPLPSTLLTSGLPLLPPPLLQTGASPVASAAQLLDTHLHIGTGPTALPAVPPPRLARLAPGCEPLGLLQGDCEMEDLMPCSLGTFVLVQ

| Compound | EC50 (SIK1) [nM] | ring closure, isolated yield ([1]; from Cc1cccc(C)c1N1Cc2cnc(Nc3ccc(N4CCN(C)CC4)c(CO)c3)nc2N(CCCC(=O)O)C1=O, DCC/DMAP/3A MS, DCM/DMF, 5.37 mM, 25.0 °C, 16.0 h) [%] | IC50 (SIK2 (h)) [nM] | increase of melanin in the suprabasal layers [2] [%] | cell viability of epidermal and dermal structures [3] | IC50 (SIK (h) / SIK1) [nM] | IC50 (SIK3 (h)) [nM] | ring closure, isolated yield ([1]; from Cc1cccc(C)c1N1Cc2cnc(Nc3ccc(N4CCN(C)CC4)c(C(=O)O)c3)nc2N(CCCCO)C1=O, 2,4,6-trichlorobenzoyl chloride/TEA, DMAP, toluene/DMF, 5.0 mM, 110.0 °C, 16.0 h) [%] | visual skin pigmentation [4] | ring closure, isolated yield ([1]; from Cc1cccc(C)c1N1Cc2cnc(Nc3ccc(N4CCN(C)CC4)c(CC(=O)O)c3)nc2N(CCCO)C1=O, DCC/DMAP/3A MS, DCM/DMF, 25.0 °C, 2.0 h) [%] | viability of cells (B16 4A5 cells) | change of surface occupied by melanin in the basal cell layer vs the vehicle ([5]; 0.2% topical) | melanin content (staining, microscopical observation) ([5]; 0.2% topical in Ethanol 70%) | surface occupied by melanin in the basal cell layer of the epidermis ([5]; 0.2% topical) | change of surface occupied by melanin in the basal cell layer vs the vehicle ([5]; 2% topical) | melanin content (staining, microscopical observation) ([5]; 2% topical in Ethanol 70%) | surface occupied by melanin in the basal cell layer of the epidermis ([5]; 2% topical) |
| --- | --- | --- | --- | --- | --- | --- | --- | --- | --- | --- | --- | --- | --- | --- | --- | --- | --- |
| Cc1cccc(C)c1N1Cc2cnc3nc2N(CCCC(=O)OCc2cc(ccc2N2CCN(C)CC2)N3)C1=O [SLT-026] | 3.24 | 9 | 2 | 50 | very slightly decreased | 2 | 3 | – | – | – | – | – | – | – | – | – | – |
| Cc1cccc(C)c1N1Cc2cnc3nc2N(CCCCOC(=O)c2cc(ccc2N2CCN(C)CC2)N3)C1=O [SLT-042] | 2.02 | – | 0.7 | 25 | very slightly decreased | 2 | 2 | 22 | – | – | – | – | – | – | – | – | – |
| COC(=O)Cc1cc(Nc2ncc3c(n2)N(CCCO)C(=O)N(c2c(C)cccc2C)C3)ccc1N1CCN(C)CC1 [SLT-045] | – | – | – | – | – | – | – | – | induced a visual skin pigmentation | – | – | – | – | – | – | – | – |
| Cc1cccc(C)c1N1Cc2cnc3nc2N(CCCOC(=O)Cc2cc(ccc2N2CCN(C)CC2)N3)C1=O [SLT-048] | 2.58 | – | 0.6 | – | very slightly decreased | – | – | – | – | 21 | slightly diminished | +24% | slight increase; also recorded: increased | 10.0 | +56% | moderate increase; also recorded: highly increased | 12.6 |

— US20250340556A1, “PYRIMIDOPYRIMIDONE COMPOUNDS AND METHODS OF USE THEREOF” (Soltego, Inc., priority 2022, published 2025)
